Columns and labels:
rat mGlu2 receptor = target: T1, rat mGlu2 receptor (Rattus norvegicus, UniProt P31421); assay: [3H]-LY354740 binding on mGlu2 transfected CHO cell membranes; details: inhibition of 10 nM [3H]-LY354740 binding, membranes of CHO cells transfected with rat mGlu2, room temperature, 1 hour
T1 construct: expressed in transfected cells; membranes prepared
From the text: [^3H]-LY354740 Binding on mGlu2 Transfected CHO Cell Membranes. Transfection and Cell Culture
cDNA encoding the rat mGlu2 receptor protein in pBluescript II was subcloned into the eukaryotic expression vector pcDNA I-amp from Invitrogen Ltd (Paisley, UK). This vector construct (pcD1mGR2) was co-transfected with a psvNeo plasmid encoding the gene for neomycin resistance, into CHO cells by a modified calcium phosphate method described by Chen & Okayama (1988). The cells were maintained in Dulbecco's Modified Eagle medium with reduced L-glutamine (1 mM final concentration), 36 mg/L L-Proline and 10% dialysed foetal calf serum from Gibco-Invitrogen; the medium was supplemented with 500 microM α-methyl-4-carboxyphenylglycine (MCPG). Selection was made in the presence of G-418 (300 ug/ml final concentration). Clones were identified by reverse transcription of 5 μg total RNA, followed by PCR using mGlu2 receptor specific primers 5′-[…]-3′ and 5′-[…]-3′ in 60 mM Tris HCl (pH 10), 15 mM (NH4)2SO4, 2 mM MgCl2, 25 units/ml Taq Polymerase with 30 cycles annealing at 60° C. for 1 min., extention at 72° C. for 30 s, and 1 min. 95° C. denaturation.
Cells, cultured as above, were harvested and washed three times with cold PBS and frozen at −80° C. The pellet was resuspended in cold 20 mM HEPES-NaOH buffer containing 10 mM EDTA (pH 7.4), and homogenised with a polytron (Kinematica, A G, Littau, Switzerland) for 10 s at 10 000 rpm. After centrifugation for 30 min. at 4° C., the pellet was washed once with cold 20 mM HEPES-NaOH buffer containing 0.1 mM EDTA, (pH 7.4). After a second centrifugation for 30 min. at 4° C. the pellet was resuspended in cold 20 mM HEPES-NaOH buffer containing 0.1 mM EDTA, (pH 7.4). Protein content was measured using the Micro BCA method from Pierce-Perbio (Rockford, Ill., USA) using bovine serum albumin as standard.
After thawing, the membranes were resuspended in cold 50 mM Tris-HCl buffer containing 2 mM MgCl2 (pH 7.4) (binding buffer). The final concentration of the membranes in the assays was 25 μg protein/ml. Inhibition experiments were performed with membranes incubated with 10 nM [^3H]-LY354740 at room temperature, for 1 hour, in presence of various concentrations of the compound to be tested. Following the incubations, membranes were filtered onto Whatmann GF/B glass fiber filters or onto GF/B Unifilter plates and washed 5 times with cold binding buffer. Non specific binding was measured in the presence of 10 μM (2S,2′R,3′R)-2-(2′3′-Dicarboxycyclopropyl)glycine (DCG IV from Tocris, Ellisville, Mo. USA). After transfer of the filters into plastic vials containing 10 ml of Ultima-gold scintillation fluid from Perkin-Elmer (Boston, Mass., USA), the radioactivity was measured by liquid scintillation in a Tri-Carb 2500 TR counter (Packard, Zürich, Switzerland). For 96-Unifilter plates the radioactivity was measured after addition of Microscint 40 scintillation fluid (Perkin Elmer, Boston Mass.) using a TopCount NXT (Packard)
The inhibition curves were fitted with a four parameter logistic equation giving IC50 values, and Hill coefficients.

T1 sequence (P31421 19-872): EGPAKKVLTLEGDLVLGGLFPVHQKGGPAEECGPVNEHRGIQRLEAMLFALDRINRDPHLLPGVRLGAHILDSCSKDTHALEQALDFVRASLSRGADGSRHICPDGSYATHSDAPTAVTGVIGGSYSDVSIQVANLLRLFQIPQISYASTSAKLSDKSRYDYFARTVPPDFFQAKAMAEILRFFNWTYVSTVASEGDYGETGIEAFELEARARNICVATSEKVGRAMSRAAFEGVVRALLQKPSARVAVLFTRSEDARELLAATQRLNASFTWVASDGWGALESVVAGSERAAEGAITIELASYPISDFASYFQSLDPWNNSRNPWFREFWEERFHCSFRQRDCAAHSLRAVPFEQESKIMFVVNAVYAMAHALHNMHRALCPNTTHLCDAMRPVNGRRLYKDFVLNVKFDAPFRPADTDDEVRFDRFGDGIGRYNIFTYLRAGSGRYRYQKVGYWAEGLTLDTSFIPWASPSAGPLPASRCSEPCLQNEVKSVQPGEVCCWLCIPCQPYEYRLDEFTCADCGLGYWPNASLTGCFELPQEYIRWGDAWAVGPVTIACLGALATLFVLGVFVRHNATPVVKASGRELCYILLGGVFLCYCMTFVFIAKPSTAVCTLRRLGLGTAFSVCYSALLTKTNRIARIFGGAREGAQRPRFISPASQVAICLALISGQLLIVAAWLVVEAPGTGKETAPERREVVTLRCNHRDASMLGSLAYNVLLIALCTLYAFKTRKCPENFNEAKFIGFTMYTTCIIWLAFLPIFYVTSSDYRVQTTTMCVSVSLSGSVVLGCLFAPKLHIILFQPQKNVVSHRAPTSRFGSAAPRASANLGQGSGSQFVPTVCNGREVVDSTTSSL

With `NS(=O)(=O)c1cccc(-c2cccc(-c3cc(-c4ccc(C(F)(F)F)cc4)cc(C(F)(F)F)n3)c2)c1` [Example 244, 3′-[6-Trifluoromethyl-4-(4-trifluoromethyl-phenyl)-pyridin-2-yl]-biphenyl-3-sulfonic acid amide] the melting point was 187 °C and the Ki (rat mGlu2 receptor) was 0.005 µM.
Molecule `Cc1cc(-c2ccc(Cl)c(Cl)c2)cc(-n2ccnc2)n1` [Example 247, 4-(3,4-Dichloro-phenyl)-2-imidazol-1-yl-6-methyl-pyridine] has a melting point of 227 °C and a Ki (rat mGlu2 receptor) of 0.041 µM.
For `Cc1cc(-c2ccc(Cl)c(Cl)c2)cc(-c2cccc(-c3ccc(N)nc3)c2)n1` [Example 249, 5-{3-[4-(3,4-Dichloro-phenyl)-6-methyl-pyridin-2-yl]-phenyl}-pyridin-2-ylamine], the melting point was 99 °C (dec.) and the Ki (rat mGlu2 receptor) was 0.009 µM.
In the case of `Cc1cc(-c2ccc(C(F)(F)F)cc2)cc(-c2cccc(-c3cc(S(N)(=O)=O)c(F)cc3F)c2)n1` [Example 270, 4,6-Difluoro-3′-[6-methyl-4-(4-trifluoromethyl-phenyl)-pyridin-2-yl]-biphenyl-3-sulfonic acid amide], the melting point is reported as 227 °C and the Ki (rat mGlu2 receptor) is reported as 0.006 µM.
Work on `Cc1cc(-c2ccc(C(F)(F)F)cc2)cc(-c2cccc(-c3ccc(S(N)(=O)=O)s3)c2)n1` [Example 271, 5-{3-[6-Methyl-4-(4-trifluoromethyl-phenyl)-pyridin-2-yl]-phenyl}-thiophene-2-sulfonic acid amide] yielded a melting point of 215 °C and a Ki (rat mGlu2 receptor) of 0.003 µM.
Work on `Cc1cc(-c2ccc(C(F)(F)F)cc2)nc(-c2cccc(-c3ccc(S(=O)(=O)NC(C)(C)C)s3)c2)c1` [Example 272, 5-{3-[4-Methyl-6-(4-trifluoromethyl-phenyl)-pyridin-2-yl]-phenyl}-thiophene-2-sulfonic acid tert-butylamide] yielded a melting point of 156 °C and a Ki (rat mGlu2 receptor) of 0.08 µM.
In the case of `Cc1cc(-c2ccc(C(F)(F)F)cc2)nc(-c2cccc(-c3cccc(S(N)(=O)=O)c3)c2)c1` [Example 274, 3′-[4-Methyl-6-(4-trifluoromethyl-phenyl)-pyridin-2-yl]-biphenyl-3-sulfonic acid amide], the melting point is reported as 200 °C and the Ki (rat mGlu2 receptor) is reported as 0.004 µM.
`Cc1cc(-c2ccc(C(F)(F)F)cc2)nc(-c2cccc(-c3cncc(S(N)(=O)=O)c3)c2)c1` [Example 275, 5-{3-[4-Methyl-6-(4-trifluoromethyl-phenyl)-pyridin-2-yl]-phenyl}-pyridine-3-sulfonic acid amide] gave a melting point of 217 °C and a Ki (rat mGlu2 receptor) of 0.087 µM.
`Cc1nc(-c2cn(-c3cc(C(F)(F)F)cc(-c4ccc(C(F)(F)F)cc4)n3)cn2)sc1S(=O)(=O)NC(C)(C)C` [Example 292, 4-Methyl-2-{1-[4-trifluoromethyl-6-(4-trifluoromethyl-phenyl)-pyridin-2-yl]-1H-imidazol-4-yl}-thiazole-5-sulfonic acid tert-butylamide] gave a melting point greater than 250 °C and a Ki (rat mGlu2 receptor) of 0.028 µM.
With `Cc1nc(-c2cn(-c3cc(C(F)(F)F)cc(-c4ccc(C(F)(F)F)cc4)n3)cn2)sc1S(N)(=O)=O` [Example 294, 4-Methyl-2-{1-[4-trifluoromethyl-6-(4-trifluoromethyl-phenyl)-pyridin-2-yl]-1H-imidazol-4-yl}-thiazole-5-sulfonic acid amide] the melting point was 187 °C (dec.) and the Ki (rat mGlu2 receptor) was 0.013 µM.
Molecule `Cc1cc(-c2ccc(C(F)(F)F)cc2)cc(-c2ccnc(-c3cccc([N+](=O)[O-])c3)c2)n1` [Example 306, 6-Methyl-2′-(3-nitro-phenyl)-4-(4-trifluoromethyl-phenyl)-[2,4′]bipyridinyl] has a melting point of 164 °C and a Ki (rat mGlu2 receptor) of 0.038 µM.
`NS(=O)(=O)c1cnc(-c2cn(-c3cc(-c4ccc(C(F)(F)F)cc4)cc(C(F)(F)F)n3)cn2)s1` [Example 313, 2-{1-[6-Trifluoromethyl-4-(4-trifluoromethyl-phenyl)-pyridin-2-yl]-1H-imidazol-4-yl}-thiazole-5-sulfonic acid amide] gave a melting point greater than 250 °C and a Ki (rat mGlu2 receptor) of 0.018 µM.
In the case of `Cc1cc(-c2ccc(C(F)(F)F)cc2)cc(-c2ccnc(-c3cccc(NS(C)(=O)=O)c3)c2)n1` [Example 318, N-{3-[6-Methyl-4-(4-trifluoromethyl-phenyl)-[2,4′]bipyridinyl-2′-yl]-phenyl}-methanesulfonamide], the melting point is reported as 196 °C and the Ki (rat mGlu2 receptor) is reported as 0.004 µM.
In the case of `Cc1cc(-c2ccc(C(F)(F)F)cc2)nc(-c2ccnc(-c3ccc(S(=O)(=O)NC(C)(C)C)s3)c2)c1` [Example 320, 5-[4-Methyl-6-(4-trifluoromethyl-phenyl)-[2,4′]bipyridinyl-2′-yl]-thiophene-2-sulfonic acid tert-butylamide], the melting point is reported as 209 °C and the Ki (rat mGlu2 receptor) is reported as 0.016 µM.
Molecule `Cc1cc(-c2ccc(C(F)(F)F)cc2)cc(-c2ccnc(-c3cccc(S(=O)(=O)N4CCOCC4)c3)c2)n1` [Example 346, 6-Methyl-2′-[3-(morpholine-4-sulfonyl)-phenyl]-4-(4-trifluoromethyl-phenyl)-[2,4′]bipyridinyl] has a melting point of 115 °C and a Ki (rat mGlu2 receptor) of 0.004 µM.
With `Cc1cc(-c2ccc(C(F)(F)F)cc2)cc(-c2ccnc(-c3cccc(S(=O)(=O)N4CCN(C)CC4)c3)c2)n1` [Example 350, 6-Methyl-2′-[3-(4-methyl-piperazine-1-sulfonyl)-phenyl]-4-(4-trifluoromethyl-phenyl)-[2,4′]bipyridinyl] the melting point was 180 °C (dec.) and the Ki (rat mGlu2 receptor) was 0.022 µM.
For `Cc1cc(-c2ccc(C(F)(F)F)cc2)cc(-c2cccc(-c3cccc(S(C)(=O)=O)c3)c2)n1` [Example 353, 2-(3′-Methanesulfonyl-biphenyl-3-yl)-6-methyl-4-(4-trifluoromethyl-phenyl)-pyridine], the melting point was 110 °C (dec.) and the Ki (rat mGlu2 receptor) was 0.003 µM.
Molecule `Cc1cc(-c2ccc(C(F)(F)F)cc2)cc(-c2ccnc(-c3cccc(S(C)(=O)=O)c3)n2)n1` [Example 355, 2-(3-Methanesulfonyl-phenyl)-4-[6-methyl-4-(4-trifluoromethyl-phenyl)-pyridin-2-yl]-pyrimidine] has a melting point of 208 °C and a Ki (rat mGlu2 receptor) of 0.001 µM.
For `Cc1cc(-c2ccc(C(F)(F)F)cc2)cc(-c2cccc(-c3cccc(S(C)(=O)=O)c3)n2)n1` [Example 356, 6′-(3-Methanesulfonyl-phenyl)-6-methyl-4-(4-trifluoromethyl-phenyl)-[2,2′]bipyridinyl], the melting point was 186 °C and the Ki (rat mGlu2 receptor) was 0.001 µM.
`CSc1cccc(-c2cccc(-c3cc(-c4ccc(C(F)(F)F)cc4)cc(C)n3)n2)c1` [Example 357, 6-Methyl-6′-(3-methylsulfanyl-phenyl)-4-(4-trifluoromethyl-phenyl)-[2,2′]bipyridinyl] showed a melting point of 144 °C and a Ki (rat mGlu2 receptor) of 0.039 µM.
`Cc1cc(-c2ccc(C(F)(F)F)cc2)cc(-c2ccnc(-c3ccnc(N)c3)n2)n1` [Example 360, 4-{4-[6-Methyl-4-(4-trifluoromethyl-phenyl)-pyridin-2-yl]-pyrimidin-2-yl}-pyridin-2-ylamine] gave a melting point of 217 °C and a Ki (rat mGlu2 receptor) of 0.005 µM.
For `O=S(=O)(c1cccc(-c2cc(-c3nc(-c4ccc(C(F)(F)F)cc4)cc(C(F)(F)F)n3)ccn2)c1)N1CCOCC1` [Example 377, 4-(3-{4-[4-Trifluoromethyl-6-(4-trifluoromethyl-phenyl)-pyrimidin-2-yl]-pyridin-2-yl}-benzenesulfonyl)-morpholine], the melting point was 202 °C and the Ki (rat mGlu2 receptor) was 0.007 µM.
With `Nc1ccc(-c2cn(-c3nc(-c4ccc(F)c(F)c4)cc(C(F)(F)F)n3)cn2)cn1` [Example 384, 5-{1-[4-(3,4-Difluoro-phenyl)-6-trifluoromethyl-pyrimidin-2-yl]-1H-imidazol-4-yl}-pyridin-2-ylamine] the melting point was 232 °C and the Ki (rat mGlu2 receptor) was 0.032 µM.
With `O=S(=O)(c1cccc(-c2cc(-c3nc(-c4ccc(C(F)(F)F)cc4)cc(C(F)(F)F)n3)ccn2)c1)N1CCCC1` [Example 390, 2-{2-[3-(Pyrrolidine-1-sulfonyl)-phenyl]-pyridin-4-yl}-4-trifluoromethyl-6-(4-trifluoromethyl-phenyl)-pyrimidine] the melting point was 184 °C and the Ki (rat mGlu2 receptor) was 0.021 µM.

From patent US8183262B2, “Pyridine derivatives as mGluR2 antagonists” (Hoffmann-La Roche Inc., priority 2007, dated 2012)
